Laboratory results as given in article PMC7997453 (Pharmaceuticals, 2021).
Where two headings read alike, the source gives them in different places.

What was measured:
[1] = intrinsic clearance in human liver microsomes; assay type: in vitro ADME; settings: In-house data, read-out: CLint,HLM
Caco-2 cell line = settings: cited from earlier work; for Papp,caco-2,(pH 7.4:7.4): ref supplement 7
CYP3A4 [2] = molecular target: T1, CYP3A4 (Homo sapiens, UniProt P08684); assay: Reversible inhibition (RI) assay on tacrolimus metabolism, CYP3A5*3/*3 HLM
T1 sequence (P08684 whole entry): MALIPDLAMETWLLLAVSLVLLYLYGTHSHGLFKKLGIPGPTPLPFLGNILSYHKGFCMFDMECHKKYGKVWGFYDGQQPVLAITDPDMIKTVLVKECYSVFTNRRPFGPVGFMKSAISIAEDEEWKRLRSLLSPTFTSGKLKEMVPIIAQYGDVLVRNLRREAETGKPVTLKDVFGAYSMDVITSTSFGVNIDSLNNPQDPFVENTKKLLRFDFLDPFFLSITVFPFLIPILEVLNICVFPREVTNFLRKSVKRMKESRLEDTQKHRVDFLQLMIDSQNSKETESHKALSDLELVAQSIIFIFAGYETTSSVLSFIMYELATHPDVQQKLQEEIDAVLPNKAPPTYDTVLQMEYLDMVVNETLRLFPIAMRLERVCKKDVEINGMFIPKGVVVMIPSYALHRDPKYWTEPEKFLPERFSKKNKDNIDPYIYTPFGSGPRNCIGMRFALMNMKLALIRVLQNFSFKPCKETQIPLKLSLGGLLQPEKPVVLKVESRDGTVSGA
Experimental: (§3) The reactions were started with the addition of nicotinamide adenine dinucleotide phosphate (NADPH, 1 mM) and stopped 10 min later upon adding a double volume of ice-cold methanol. […] Reactions were terminated with the same method as the CYP3A4 group. All incubations were carried out in triplicate. […] Dixon plots were used to analyze the inhibitory type of RI assay and Ki value.

CYP3A4 [3] = molecular target: T1, CYP3A4; assay: Time-dependent inhibition (TDI) assay, testosterone-6β-hydroxylation, CYP3A5*3/*3 HLM; assay type: biochemical
Experimental: (§1) Testosterone-6β-hydroxylation was used to measure the activity of CYP3A4 and CYP3A5. […] With the corresponding double-reciprocal plot, the derived kinetic constants from the inactivation experiments were estimated.
(§2) Two-step incubation was performed to evaluate the TDI assay. […] After pre-incubation for 3 min at 37 °C in a shaking water bath, the enzymatic reaction was started upon adding NADPH (1 mM) with various pre-reaction time (0, 5, 10, 20, 30 min). For TDI on CYP3A5, NADPH (1 mM) was added to the incubation which contained CYP3A5*1/*3 HLM (0.5 mg/mL) and CYP3cide (1.2 μM) after being pre-warmed for 3 min. […] Next step, an aliquot (20 μL) of the primary pre-reaction mixture was transferred to 180 μL of the secondary incubation system which consisted of PBS (0.1 M), testosterone (200 μM) and NADPH (1 mM). The secondary reaction was incubated at 37 °C for 10 min and terminated by adding 400 μL ice-cold acetonitrile containing prednisolone as the internal standard (0.3150 μM for CYP3A5*3/*3 HLM incubation and 0.07875 μM for CYP3A5*1/*3 HLM incubation). […] The observed inactivation rate of the affected enzyme (kobs) was the negative slope of the linear regression. kinact and KI were calculated using Equation (1) by the double-reciprocal plot. I represents the concentration of the inhibitor. (1) kobs=kinact×I/[…]

[4] = octanol/water partition coefficient; assay type: physicochemical; settings: In-house data
CYP3A5 [5] = molecular target: T2, CYP3A5 (Homo sapiens, UniProt P20815); assay: Time-dependent inhibition (TDI) assay, testosterone-6β-hydroxylation, CYP3A5*1/*3 HLM with CYP3cide; assay type: biochemical
T2 sequence (P20815 whole entry): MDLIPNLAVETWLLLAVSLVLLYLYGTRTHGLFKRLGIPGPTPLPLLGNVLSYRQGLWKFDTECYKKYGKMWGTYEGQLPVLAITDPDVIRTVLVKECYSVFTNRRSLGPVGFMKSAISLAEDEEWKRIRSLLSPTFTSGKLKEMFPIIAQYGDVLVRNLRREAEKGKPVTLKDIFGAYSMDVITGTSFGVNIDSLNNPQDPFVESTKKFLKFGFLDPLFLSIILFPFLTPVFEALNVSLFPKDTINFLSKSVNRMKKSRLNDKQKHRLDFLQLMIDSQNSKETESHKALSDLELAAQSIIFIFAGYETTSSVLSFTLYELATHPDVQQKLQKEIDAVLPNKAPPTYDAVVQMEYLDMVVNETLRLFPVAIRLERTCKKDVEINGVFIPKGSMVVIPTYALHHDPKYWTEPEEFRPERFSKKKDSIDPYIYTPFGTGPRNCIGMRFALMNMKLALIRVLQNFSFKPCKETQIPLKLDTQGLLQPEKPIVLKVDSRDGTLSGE
Experimental: as §1, §2

CYP3A = system: CYP3A; set-up: method as in PMID 15342469; settings: cited from earlier work
CYP3A5 [6] = molecular target: T2, CYP3A5; assay: Reversible inhibition (RI) assay on tacrolimus metabolism, CYP3A5*1/*3 HLM with CYP3cide
Experimental: as §3

[7] = cited from earlier work
[8] = set-up: method as in PMID 12676880; settings: cited from earlier work
[9] = set-up: method as in supplement 5; settings: ref supplement 5; cited from earlier work
[10] = set-up: method as in supplement 4; settings: ref supplement 4; cited from earlier work
[11] = set-up: method as in supplement 6; settings: ref supplement 6; cited from earlier work
[12] = ref supplement 4; cited from earlier work
CYP3A4 [13] = system: CYP3A4; set-up: method as in earlier work; settings: ref 3 (supplement ref 8), cited from earlier work; for Km: unbound Michaelis constant
CYP3A5 [14] = settings: cited from earlier work; for Km: unbound Michaelis constant
[15] = cited from earlier work; remark: listed apart in the source
[16] = set-up: method as in PMID 25028625; settings: cited from earlier work
[17] = 0.125 μM STA, 0.2 μM tacrolimus
[18] = 0.125 μM STA, 0.4 μM tacrolimus
[19] = 0.125 μM STA, 0.8 μM tacrolimus
[20] = 0.125 μM STA, 1.6 μM tacrolimus
[21] = single oral dose 1 mg, CYP3A5 expressers
[22] = single oral dose 1 mg, CYP3A5 non-expressers
[23] = single oral dose 2 mg, CYP3A5 expressers
[24] = single oral dose 2 mg, CYP3A5 non-expressers
[25] = single oral dose 5 mg, CYP3A5 expressers
[26] = single oral dose 5 mg, CYP3A5 non-expressers

COc1cc2c(c(OC)c1OC)-c1c(cc3c(c1OC)OCO3)CC(C)C(C)(O)C2OC(=O)c1ccccc1 (stereo not drawn) [STA, schisantherin A]
microsomal CLint [1]: 24 µL/min/mg
Papp,caco-2 (Caco-2 cell line; ref supplement 3): 34.41 ×10⁻⁶ cm/s
Ki (CYP3A4 [2]): 150 nM
Dixon plot data point, Figure 2A, Mean (CYP3A4 [2]; [17]): 17.0000
Dixon plot data point, Figure 2A, Mean (CYP3A4 [2]; [18]): 9.0441
Dixon plot data point, Figure 2A, Mean (CYP3A4 [2]; [19]): 7.1353
Dixon plot data point, Figure 2A, Mean (CYP3A4 [2]; [20]): 2.6233
Dixon plot data point, Figure 2A, Mean (CYP3A4 [2]; 0.25 μM STA, 0.2 μM tacrolimus): 21.0000
Dixon plot data point, Figure 2A, Mean (CYP3A4 [2]; 0.25 μM STA, 0.4 μM tacrolimus): 14.8861
Dixon plot data point, Figure 2A, Mean (CYP3A4 [2]; 0.25 μM STA, 0.8 μM tacrolimus): 8.3071
Dixon plot data point, Figure 2A, Mean (CYP3A4 [2]; 0.25 μM STA, 1.6 μM tacrolimus): 3.9072
Dixon plot data point, Figure 2A, Mean (CYP3A4 [2]; 0.5 μM STA, 0.2 μM tacrolimus): 35.0000
Dixon plot data point, Figure 2A, Mean (CYP3A4 [2]; 0.5 μM STA, 0.4 μM tacrolimus): 23.9051
Dixon plot data point, Figure 2A, Mean (CYP3A4 [2]; 0.5 μM STA, 0.8 μM tacrolimus): 13.9244
Dixon plot data point, Figure 2A, Mean (CYP3A4 [2]; 0.5 μM STA, 1.6 μM tacrolimus): 5.0160
reversible inhibition on CYP3A4 (in words) (CYP3A4 [2]; CYP3A5*3/*3 HLM, substrate tacrolimus): competitive reversible inhibition
TDI profile on CYP3A4 (in words) (CYP3A4 [3]): potent TDI
log of percentage of control activity, Figure 3A, Mean (CYP3A4 [3]; 0.25 μM STA, pre-incubation 0 min): 4.6010
log of percentage of control activity, Figure 3A, Mean (CYP3A4 [3]; 0.25 μM STA, pre-incubation 5 min): 4.4164
log of percentage of control activity, Figure 3A, Mean (CYP3A4 [3]; 0.25 μM STA, pre-incubation 10 min): 4.3386
log of percentage of control activity, Figure 3A, Mean (CYP3A4 [3]; 0.25 μM STA, pre-incubation 20 min): 4.2986
log of percentage of control activity, Figure 3A, Mean (CYP3A4 [3]; 0.25 μM STA, pre-incubation 30 min): 4.2407
log of percentage of control activity, Figure 3A, Mean (CYP3A4 [3]; 0.5 μM STA, pre-incubation 0 min): 4.6010
log of percentage of control activity, Figure 3A, Mean (CYP3A4 [3]; 0.5 μM STA, pre-incubation 5 min): 4.2393
log of percentage of control activity, Figure 3A, Mean (CYP3A4 [3]; 0.5 μM STA, pre-incubation 10 min): 4.0778
log of percentage of control activity, Figure 3A, Mean (CYP3A4 [3]; 0.5 μM STA, pre-incubation 20 min): 3.9359
log of percentage of control activity, Figure 3A, Mean (CYP3A4 [3]; 0.5 μM STA, pre-incubation 30 min): 3.9183
log of percentage of control activity, Figure 3A, Mean (CYP3A4 [3]; 1 μM STA, pre-incubation 0 min): 4.5902
log of percentage of control activity, Figure 3A, Mean (CYP3A4 [3]; 1 μM STA, pre-incubation 5 min): 4.1658
log of percentage of control activity, Figure 3A, Mean (CYP3A4 [3]; 1 μM STA, pre-incubation 10 min): 4.0515
log of percentage of control activity, Figure 3A, Mean (CYP3A4 [3]; 1 μM STA, pre-incubation 20 min): 3.8785
log of percentage of control activity, Figure 3A, Mean (CYP3A4 [3]; 1 μM STA, pre-incubation 30 min): 3.5554
log of percentage of control activity, Figure 3A, Mean (CYP3A4 [3]; 2 μM STA, pre-incubation 0 min): 4.6052
log of percentage of control activity, Figure 3A, Mean (CYP3A4 [3]; 2 μM STA, pre-incubation 5 min): 4.0322
log of percentage of control activity, Figure 3A, Mean (CYP3A4 [3]; 2 μM STA, pre-incubation 10 min): 3.5615
log of percentage of control activity, Figure 3A, Mean (CYP3A4 [3]; 2 μM STA, pre-incubation 20 min): 3.1694
log of percentage of control activity, Figure 3A, Mean (CYP3A4 [3]; 2 μM STA, pre-incubation 30 min): 3.0051
kinact/KI (CYP3A4 [3]; CYP3A4): 748.3 M⁻¹ s⁻¹
KI (CYP3A4 [3]; CYP3A4, testosterone-6β-hydroxylation): 2450 nM
kinact (CYP3A4 [3]; human, CYP3A5*3/*3 human liver microsomes, probe testosterone (200 μM), CYP3A4, testosterone-6β-hydroxylation): 0.00183 s⁻¹
logP [4]: 1.7
TDI profile on CYP3A5 (in words) (CYP3A5 [5]): not observed
KI (inactivation) (CYP3A; erythromycin N-demethylation, read-out: inhibitor concentration causing half-maximal inactivation (KI)): 399 nM
kinact/KI (CYP3A; erythromycin probe substrate): 3843 M⁻¹ s⁻¹
Ki (CYP3A; reversible inhibition of CYP3A, the substrate is erythromycin, read-out: inhibitory constant (Ki)): 49 nM
Ki (CYP3A5 [6]): 110 nM
Dixon plot data point, Figure 2B, Mean (CYP3A5 [6]; [17]): 15.0000
Dixon plot data point, Figure 2B, Mean (CYP3A5 [6]; [18]): 14.0109
Dixon plot data point, Figure 2B, Mean (CYP3A5 [6]; [19]): 7.5773
Dixon plot data point, Figure 2B, Mean (CYP3A5 [6]; [20]): 5.6992
Dixon plot data point, Figure 2B, Mean (CYP3A5 [6]; 0.25 μM STA, 0.2 μM tacrolimus): 23.2012
Dixon plot data point, Figure 2B, Mean (CYP3A5 [6]; 0.25 μM STA, 0.4 μM tacrolimus): 15.6487
Dixon plot data point, Figure 2B, Mean (CYP3A5 [6]; 0.25 μM STA, 0.8 μM tacrolimus): 12.0521
Dixon plot data point, Figure 2B, Mean (CYP3A5 [6]; 0.25 μM STA, 1.6 μM tacrolimus): 5.8700
Dixon plot data point, Figure 2B, Mean (CYP3A5 [6]; 0.5 μM STA, 0.2 μM tacrolimus): 30.8928
Dixon plot data point, Figure 2B, Mean (CYP3A5 [6]; 0.5 μM STA, 0.4 μM tacrolimus): 26.2841
Dixon plot data point, Figure 2B, Mean (CYP3A5 [6]; 0.5 μM STA, 0.8 μM tacrolimus): 14.9975
Dixon plot data point, Figure 2B, Mean (CYP3A5 [6]; 0.5 μM STA, 1.6 μM tacrolimus): 8.0120
reversible inhibition on CYP3A5 (in words) (CYP3A5 [6]; CYP3A5*1/*3 HLM with CYP3cide, substrate tacrolimus): competitive reversible inhibition
fu plasma ([7]; ref supplement 2): 0.083

CC(=O)N1CCN(c2ccc(OCC3COC(Cn4ccnc4)(c4ccc(Cl)cc4Cl)O3)cc2)CC1 (stereo not drawn) [ketoconazole]
inhibition (tacrolimus level), CYP3A5 non-expressers versus expressers [8]: more significant inhibition

Cc1ncc2n1-c1ccc(Cl)cc1C(c1ccccc1F)=NC2 [midazolam]
Papp,caco-2,(pH 7.4:7.4) (Caco-2 cell line): 32.4 ×10-6cm/s

C=CC[C@@H]1/C=C(\C)C[C@H](C)C[C@H](OC)[C@H]2O[C@@](O)(C(=O)C(=O)N3CCCC[C@H]3C(=O)O[C@H](/C(C)=C/[C@@H]3CC[C@@H](O)[C@H](OC)C3)[C@H](C)[C@@H](O)CC1=O)[C@H](C)C[C@@H]2OC [tacrolimus]
fu gut [9]: 1
B/P [10]: 35
Intrinsic solubility [11]: 12 µg/mL
Papp,caco-2,(pH 7.4:7.4) (Caco-2 cell line): 13.1 ×10-6cm/s
LogPo:w [12]: 3.26
CYP3A4 12-HT Vmax (CYP3A4 [13]; 12-hydroxy tacrolimus formation): 0.6 pmol/min/pmol
CYP3A4 13-DMT Vmax (CYP3A4 [13]; 13-O-desmethyl tacrolimus formation): 8 pmol/min/pmol
Km (CYP3A4 [13]; read-out: CYP3A4 12-HT Km,u): 0.29 µM
Km (CYP3A4 [13]; read-out: CYP3A4 13-DMT Km,u): 0.21 µM
CYP3A5 12-HT Vmax (CYP3A5 [14]; 12-hydroxy tacrolimus formation, ref 3 (supplement ref 8)): 1.4 pmol/min/pmol
CYP3A5 13-DMT Vmax (CYP3A5 [14]; 13-O-desmethyl tacrolimus formation, ref 3 (supplement ref 8)): 17 pmol/min/pmol
intrinsic clearance of tacrolimus by CYP3A5 versus CYP3A4 (CYP3A5 [14]; in vitro): more than two-fold faster
Km (CYP3A5 [14]; ref 3 (supplement ref 8), read-out: CYP3A5 12-HT Km,u): 0.35 µM
Km (CYP3A5 [14]; ref 3 (supplement ref 8), read-out: CYP3A5 13-DMT Km,u): 0.21 µM
AUC Obs (Observed) [15, 21]: 19.34 ng·h/mL
Cmax Obs (Observed) [15, 21]: 3.88 ng/mL
Tmax Obs (Observed) [15, 21]: 1.75 h
AUC Obs (Observed) [15, 22]: 30.34 ng·h/mL
Cmax Obs (Observed) [15, 22]: 5.52 ng/mL
Tmax Obs (Observed) [15, 22]: 1.5 h
AUC Obs (Observed) [15, 23]: 60.83 ng·h/mL
Cmax Obs (Observed) [15, 23]: 14.09 ng/mL
Tmax Obs (Observed) [15, 23]: 1.26 h
AUC Obs (Observed) [15, 24]: 119.02 ng·h/mL
Cmax Obs (Observed) [15, 24]: 24.28 ng/mL
Tmax Obs (Observed) [15, 24]: 1.35 h
AUC Obs (Observed) [15, 25]: 90.40 ng·h/mL
Cmax Obs (Observed) [15, 25]: 20.8 ng/mL
Tmax Obs (Observed) [15, 25]: 1.40 h
AUC Obs (Observed) [15, 26]: 134.77 ng·h/mL
Cmax Obs (Observed) [15, 26]: 27.90 ng/mL
Tmax Obs (Observed) [15, 26]: 1.30 h
fu plasma ([7]; ref supplement 4): 0.013

Clc1ccccc1C(c1ccccc1)(c1ccccc1)n1ccnc1 [Clotrimazole]
inhibition on tacrolimus metabolism, CYP3A5 non-expresser patients versus expressers [16]: significantly greater inhibition
